The target of the assay is T1, human mAChR M4 (Homo sapiens, UniProt P08173).
T1 construct: expressed in transfected cells; host or cells: CHO-K1 (ATCC), stably co-expressing chimeric G protein Gqi5
T1 sequence (P08173 1-479): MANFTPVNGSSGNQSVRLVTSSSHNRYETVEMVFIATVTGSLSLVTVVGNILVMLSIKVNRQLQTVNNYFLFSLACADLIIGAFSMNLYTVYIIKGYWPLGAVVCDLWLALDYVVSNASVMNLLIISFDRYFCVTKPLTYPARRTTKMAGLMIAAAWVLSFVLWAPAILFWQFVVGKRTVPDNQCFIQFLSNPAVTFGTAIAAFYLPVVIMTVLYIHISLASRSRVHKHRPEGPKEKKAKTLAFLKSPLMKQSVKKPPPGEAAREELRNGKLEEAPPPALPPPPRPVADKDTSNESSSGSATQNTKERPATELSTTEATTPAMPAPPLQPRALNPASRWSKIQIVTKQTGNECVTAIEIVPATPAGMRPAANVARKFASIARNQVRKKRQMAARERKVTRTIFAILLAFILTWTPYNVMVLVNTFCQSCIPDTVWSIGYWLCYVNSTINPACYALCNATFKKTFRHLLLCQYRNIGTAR
As to the kind of experiment: mAChR M4 cell-based functional assay (calcium mobilization, EC80 acetylcholine), human M4. The note with it: for IC50: M4/Gqi5/CHO-K1 cells, decrease of EC80 acetylcholine response; for Emin: human M4, % ACh maximum at 30 μM. On the procedure:
Human or rat M4 cDNA, along with the chimeric G protein Gqi5, were transfected into Chinese hamster ovary (CHO-K1) cells purchased from the American Type Culture Collection using Lipofectamine2000. M4/Gqi5/CHO cells were grown in Ham's F-12 medium containing 10% heat-inactivated fetal bovine serum (FBS), 20 mM HEPES, 500 μg/mL G418 sulfate, and 200 μg/mL Hygromycin B.
For high throughput measurement of agonist-evoked increases in intracellular calcium, CHO-K1 cells stably expressing muscarinic receptors were plated in growth medium lacking G418 and hygromycin at 15,000 cells/20 μL/well in Greiner 384-well black-walled, tissue culture (TC)-treated, clear-bottom plates (VWR). Cells were incubated overnight at 37° C. and 5% CO2. […] Compound master plates were formatted in a 10 point concentration-response curve (CRC) format (1:3 dilutions) in 100% DMSO with a starting concentration of 10 or 1 mM using a BRAVO liquid handler (Agilent). Test compound CRCs were then transferred to daughter plates (240 nL) using the Echo acoustic plate reformatter (Labcyte, Sunnyvale, CA) and then diluted into assay buffer (40 μL) to a 2× stock using a Thermo Fisher Combi (Thermo Fisher Scientific, Waltham, MA).
Calcium flux was measured using the Functional Drug Screening System (FDSS) 6000 or 7000 (Hamamatsu Corporation, Tokyo, Japan) as an increase in the fluorescent static ratio. Compounds were applied to cells (20 μL, 2×) using the automated system of the FDSS at 2 seconds into the protocol and the data were collected at 1 Hz. […] Agonist activity was analyzed as a concentration-dependent increase in calcium mobilization upon compound addition. Positive allosteric modulator activity was analyzed as a concentration-dependent increase in the EC20 acetylcholine response. Antagonist activity was analyzed as a concentration-dependent decrease in the EC80 acetylcholine response; for the purposes of the tables herein, an IC50 (inhibitory concentration 50) was calculated as a concentration-dependent decrease of the response elicited by an EC80 concentration of acetylcholine. Concentration-response curves were generated using a four-parameter logistical equation in XLFit curve fitting software (IDBS, Bridgewater, NJ) for Excel (Microsoft, Redmond, WA) or Prism (GraphPad Software, Inc., San Diego, CA) or the Dotmatics software platform (Dotmatics, Bishop's Stortford, UK).
(A change in cytosolic calcium serves as a functional read-out for many receptors and channels.)

For `Cc1cnn(C)c1-c1ccc(OCC2C[C@@H]3CN(CCC(C)(C)C)C[C@@H]3C2)nn1` (stereo partly drawn) [Compound 78, (3aR,6aS)-2-(3,3-Dimethylbutyl)-5-[[6-(2,4-dimethylpyrazol-3-yl)pyridazin-3-yl]oxymethyl]-3,3a,4,5,6,6a-hexahydro-1H-cyclopenta[c]pyrrole], for the setting “Table 9”, the IC50 (usually the concentration needed to halve the response being measured) is 105 nM and the Emin came to 4.35%.
As to `c1cc(-c2ccc(N[C@H]3C[C@@H]4CN(CC5CCOCC5)C[C@@H]4C3)nn2)c[nH]1` [Compound 229, (3aR,5s,6aS)-N-[6-(1H-pyrrol-3-yl)pyridazin-3-yl]-2-(tetrahydropyran-4-ylmethyl)-3,3a,4,5,6,6a-hexahydro-1H-cyclopenta[c]pyrrol-5-amine], for the setting “Table 10”, the “Human M4 Emin” value is on record as 11% and the IC50 came out at 102 nM.
With `Cc1nn(C)cc1-c1ccc(NCC2C[C@@H]3CN(CC(C)C(C)(C)C)C[C@@H]3C2)nn1` (stereo partly drawn) [Compound 63, N-[[(3aR,6aS)-2-(2,3,3-trimethylbutyl)-3,3a,4,5,6,6a-hexahydro-1H-cyclopenta[c]pyrrol-5-yl]methyl]-6-(1,3-dimethylpyrazol-4-yl)pyridazin-3-amine], where the note is “Table 9”, the IC50 came out at 108 nM and the Emin was 3.46%.
On the same counts, the results for `Cc1nn(C)cc1-c1ccc(NCC2C[C@@H]3CN(CC4CC5C=CC4C5)C[C@@H]3C2)nn1` (stereo partly drawn) [Compound 62, N-[[(3aR,6aS)-2-(5-bicyclo[2.2.1]hept-2-enylmethyl)-3,3a,4,5,6,6a-hexahydro-1H-cyclopenta[c]pyrrol-5-yl]methyl]-6-(1,3-dimethylpyrazol-4-yl)pyridazin-3-amine] are 18.9 nM and 3.32%.
`Cc1cnn(C)c1-c1ccc(OCC2C[C@@H]3CN(CC45CC6CC(CC(C6)C4)C5)C[C@@H]3C2)nn1` (stereo partly drawn) [Compound 79, (3sR,6aS)-2-(1-adamantylmethyl)-5-[[6-(2,4-dimethylpyrazol-3-yl)pyridazin-3-yl]oxymethyl]-3,3a,4,5,6,6a-hexahydro-1H-cyclopenta[c]pyrrole]: for the setting “Table 9”, the 50% inhibitory concentration (IC50) is 119 nM and the Emin was 3.76%.
Take `c1cc(N2CCOCC2)nnc1N[C@H]1C[C@@H]2CN(CC3CCOCC3)C[C@@H]2C1` [Compound 191, (3aR,5s,6aS)-N-(6-morpholinopyridazin-3-yl)-2-(tetrahydropyran-4-ylmethyl)-3,3a,4,5,6,6a-hexahydro-1H-cyclopenta[c]pyrrol-5-amine]: where the note is “Table 10”, the “Human M4 Emin” value came to 5% and the IC50 came out at 13.4 nM.
On to `Cc1cnn(C)c1-c1ccc(O[C@H]2C[C@@H]3CN(CCC(C)(C)C)C[C@@H]3C2)nn1` [Compound 135, (3aR,5s,6aS)-2-(3,3-dimethylbutyl)-5-[6-(2,4-dimethylpyrazol-3-yl)pyridazin-3-yl]oxy-3,3a,4,5,6,6a-hexahydro-1H-cyclopenta[c]pyrrole], for which, where the note is “Table 10”, the “Human M4 Emin” value was 5% and the half-inhibitory concentration (IC50) is 287 nM.
Taken in the same sequence, the figures for `Cc1nn(C)cc1-c1cnc(N[C@H]2C[C@@H]3CN(CC4CC5C=CC4C5)C[C@@H]3C2)cn1` (stereo partly drawn) [Compound 154, (3aR,5s,6aS)-2-(5-bicyclo[2.2.1]hept-2-enylmethyl)-N-[5-(1,3-dimethylpyrazol-4-yl)pyrazin-2-yl]-3,3a,4,5,6,6a-hexahydro-1H-cyclopenta[c]pyrrol-5-amine] were 4% and 30.8 nM.
For `Fc1ccc(Cl)c(-c2ccc(N[C@H]3C[C@@H]4CN(CC5CCCOC5)C[C@@H]4C3)nn2)c1` (stereo partly drawn) [Compound 33, (3aR,5s,6aS)-N-[6-(2-chloro-5-fluoro-phenyl)pyridazin-3-yl]-2-(tetrahydropyran-3-ylmethyl)-3,3a,4,5,6,6a-hexahydro-1H-cyclopenta[c]pyrrol-5-amine], for the setting “Table 9”, the IC50 was 1.2 nM and the Emin is 6.3%.
As to `Fc1ccc(Cl)c(-c2ccc(N[C@H]3C[C@@H]4CN(Cc5cccc6c5OCO6)C[C@@H]4C3)nn2)c1` [Compound 167, (3aR,5s,6aS)-2-(1,3-benzodioxol-4-ylmethyl)-N-[6-(2-chloro-5-fluoro-phenyl)pyridazin-3-yl]-3,3a,4,5,6,6a-hexahydro-1H-cyclopenta[c]pyrrol-5-amine], where the note is “Table 10”, the “Human M4 Emin” value amounted to 2% and the IC50 was 39.1 nM.
On the same counts, the results for `N#Cc1ccc(F)cc1-c1ccc(N[C@H]2C[C@@H]3CN(CC4CCOCC4)C[C@@H]3C2)nn1` [Compound 213, 2-[6-[[(3aR,5s,6aS)-2-(tetrahydropyran-4-ylmethyl)-3,3a,4,5,6,6a-hexahydro-1H-cyclopenta[c]pyrrol-5-yl]amino]pyridazin-3-yl]-4-fluoro-benzonitrile] are 16% and 11.8 nM.
As for `Fc1ccc(F)c(-c2ccc(N[C@H]3C[C@@H]4CN(CC5CCOCC5)C[C@@H]4C3)nn2)c1` [Compound 215, (3aR,5s,6aS)-N-[6-(2,5-difluorophenyl)pyridazin-3-yl]-2-(tetrahydropyran-4-ylmethyl)-3,3a,4,5,6,6a-hexahydro-1H-cyclopenta[c]pyrrol-5-amine], where the note is “Table 10”, the “Human M4 Emin” value is given as 6% and the IC50 is 1.4 nM.
For `Cc1nn(C)cc1-c1ccc(OCC2C[C@@H]3CN(CC45CC6CC(CC(C6)C4)C5)C[C@@H]3C2)nn1` (stereo partly drawn) [Compound 93, (3aR,6aS)-2-(1-adamantylmethyl)-5-[[6-(1,3-dimethylpyrazol-4-yl)pyridazin-3-yl]oxymethyl]-3,3a,4,5,6,6a-hexahydro-1H-cyclopenta[c]pyrrole], under “Table 9”, the IC50 worked out at 82.1 nM and the Emin came out at 4.05%.
In the case of `Cc1cccnc1CN1C[C@H]2CC(COc3ccc(-c4c(C)cnn4C)nn3)C[C@H]2C1` (stereo partly drawn) [Compound 90, (3aR,6aS)-5-[[6-(2,4-dimethylpyrazol-3-yl)pyridazin-3-yl]oxymethyl]-2-[(3-methyl-2-pyridyl)methyl]-3,3a,4,5,6,6a-hexahydro-1H-cyclopenta[c]pyrrole], for the setting “Table 9”, the IC50 was found to be 1430 nM and the Emin came out at 7.98%.
With `c1cn2cc(-c3ccc(N[C@H]4C[C@@H]5CN(CC6CCOCC6)C[C@@H]5C4)nn3)ccc2n1` [Compound 183, (3aR,5s,6aS)-N-(6-imidazo[1,2-a]pyridin-6-ylpyridazin-3-yl)-2-(tetrahydropyran-4-ylmethyl)-3,3a,4,5,6,6a-hexahydro-1H-cyclopenta[c]pyrrol-5-amine], for the setting “Table 10”, the “Human M4 Emin” value came out at 7% and the IC50 worked out at 1.07 nM.
Regarding `c1ccc(-c2ccc(N[C@H]3C[C@@H]4CN(CC5CCOCC5)C[C@@H]4C3)nn2)cc1` [Compound 197, (3aR,5s,6aS)-N-(6-phenylpyridazin-3-yl)-2-(tetrahydropyran-4-ylmethyl)-3,3a,4,5,6,6a-hexahydro-1H-cyclopenta[c]pyrrol-5-amine], where the note is “Table 10”, the “Human M4 Emin” value was determined as 9% and the IC50 is 1.25 nM.
For `Cc1nn(C)cc1-c1ccc(N[C@@H]2C[C@@H]3CN(CC4CC5C=CC4C5)C[C@@H]3C2)c(F)c1F` (stereo partly drawn) [Compound 42, (3aR,5r,6aS)-2-(5-bicyclo[2.2.1]hept-2-enylmethyl)-N-[4-(1,3-dimethylpyrazol-4-yl)-2,3-difluoro-phenyl]-3,3a,4,5,6,6a-hexahydro-1H-cyclopenta[c]pyrrol-5-amine], for the setting “Table 9”, the IC50 is 422 nM and the Emin is listed as 4.00%.

Values taken from patent publication US12577234B2, “Antagonists of the muscarinic acetylcholine receptor M4” (Vanderbilt University, priority 2017, dated 2026).
